Data published in PubChem BioAssay AID2060888 (Molecular Pharmacology Branch, DTP, NCI, 2025).

System: 695427-040-R-J1-PDC complex spheroid viability
Assay: Anticancer human tumor 695427-040-R-J1-PDC patient-derived colon adenocarcinoma cell line growth inhibition [RAS]
Conditions: for IC50: curve of first compound; for viability, T/C: stronger effect = lower value
Summary of the method: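 Agents were tested in combination matrices in half-log decrements from a top concentration at or near clinical Cmax (10 microM if undetermined). Targets were multi-cell spheroids of tumour lines plus HUVEC and MSC stromal cells.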

[1] = second compound 0.00316 µM, first compound 0.0316 µM
[2] = second compound 0.00316 µM, first compound 0.1 µM
[3] = second compound 0.00316 µM, first compound 0.316 µM
[4] = second compound 0.00316 µM, first compound 1 µM
[5] = second compound 0.00316 µM, first compound 3.16 µM
[6] = second compound 0.00316 µM, first compound 10 µM
[7] = second compound 0.01 µM, first compound 0.0316 µM
[8] = second compound 0.01 µM, first compound 0.1 µM
[9] = second compound 0.01 µM, first compound 0.316 µM
[10] = second compound 0.01 µM, first compound 1 µM
[11] = second compound 0.01 µM, first compound 3.16 µM
[12] = second compound 0.01 µM, first compound 10 µM
[13] = second compound 0.0316 µM, first compound 0.0316 µM
[14] = second compound 0.0316 µM, first compound 0.1 µM
[15] = second compound 0.0316 µM, first compound 0.316 µM
[16] = second compound 0.0316 µM, first compound 1 µM
[17] = second compound 0.0316 µM, first compound 3.16 µM
[18] = second compound 0.0316 µM, first compound 10 µM
[19] = second compound 0.1 µM, first compound 0.0316 µM
[20] = second compound 0.1 µM, first compound 0.1 µM
[21] = second compound 0.1 µM, first compound 0.316 µM
[22] = second compound 0.1 µM, first compound 1 µM
[23] = second compound 0.1 µM, first compound 3.16 µM
[24] = second compound 0.1 µM, first compound 10 µM
[25] = second compound 0.316 µM, first compound 0.0316 µM
[26] = second compound 0.316 µM, first compound 0.1 µM
[27] = second compound 0.316 µM, first compound 0.316 µM
[28] = second compound 0.316 µM, first compound 1 µM
[29] = second compound 0.316 µM, first compound 3.16 µM
[30] = second compound 0.316 µM, first compound 10 µM
[31] = second compound 1 µM, first compound 0.0316 µM
[32] = second compound 1 µM, first compound 0.1 µM
[33] = second compound 1 µM, first compound 0.316 µM
[34] = second compound 1 µM, first compound 1 µM
[35] = second compound 1 µM, first compound 3.16 µM
[36] = second compound 1 µM, first compound 10 µM
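Note: viability read after seven days of drug exposure.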
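Throughout, for viability, T/C: 100% = DMSO vehicle control viability.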

Question: How did the IC50 (second compound 0.00316 µM) turn out when `CC(Nc1ccc2c(c1)OCCn1cc(N3C(=O)OCC3C(F)F)nc1-2)C(N)=O` (stereo unspecified) + C=CC(=O)N1CCN(c2nc(OCC3CCCN3C)nc3c(F)c(-c4nc(N)cc(C)c4C(F)(F)F)c(Cl)cc23)C(C)C1 was run?
Answer: 1.47 µM

Question: What about the IC50 (second compound 0.01 µM) of the same compound?
Answer: 0.838 µM

Question: And the IC50 (second compound 0.0316 µM)?
Answer: 1.58 µM

Question: And the IC50 (second compound 0.1 µM)?
Answer: 2.01 µM

Question: What about the IC50 (second compound 0.316 µM) of the same compound?
Answer: 3.13 µM

Question: What about the IC50 (second compound 1 µM) of the same compound?
Answer: 2.03 µM

Question: And the viability, T/C [1]?
Answer: 89.6%

Question: And the viability, T/C [2]?
Answer: 68.5%

Question: And the viability, T/C [3]?
Answer: 62.4%

Question: What about the viability, T/C [4] of the same compound?
Answer: 54.2%

Question: And the viability, T/C [5]?
Answer: 46.8%

Question: And the viability, T/C [6]?
Answer: 36.2%

Question: What about the viability, T/C [7] of the same compound?
Answer: 95.5%

Question: What about the viability, T/C [8] of the same compound?
Answer: 75.5%

Question: And the viability, T/C [9]?
Answer: 56.5%

Question: And the viability, T/C [10]?
Answer: 50.2%

Question: What about the viability, T/C [11] of the same compound?
Answer: 43.5%

Question: And the viability, T/C [12]?
Answer: 41.1%

Question: And the viability, T/C [13]?
Answer: 90.7%

Question: And the viability, T/C [14]?
Answer: 76.7%

Question: And the viability, T/C [15]?
Answer: 65.2%

Question: And the viability, T/C [16]?
Answer: 51.2%

Question: And the viability, T/C [17]?
Answer: 47%

Question: What about the viability, T/C [18] of the same compound?
Answer: 38.4%

Question: What about the viability, T/C [19] of the same compound?
Answer: 85.2%

Question: What about the viability, T/C [20] of the same compound?
Answer: 71%

Question: What about the viability, T/C [21] of the same compound?
Answer: 64.3%

Question: What about the viability, T/C [22] of the same compound?
Answer: 50.4%

Question: And the viability, T/C [23]?
Answer: 49.6%

Question: And the viability, T/C [24]?
Answer: 43.3%

Question: And the viability, T/C [25]?
Answer: 87.2%

Question: And the viability, T/C [26]?
Answer: 73.2%

Question: And the viability, T/C [27]?
Answer: 66.2%

Question: What about the viability, T/C [28] of the same compound?
Answer: 55.9%

Question: And the viability, T/C [29]?
Answer: 50.8%

Question: And the viability, T/C [30]?
Answer: 44.4%

Question: What about the viability, T/C [31] of the same compound?
Answer: 85.6%

Question: And the viability, T/C [32]?
Answer: 71%

Question: What about the viability, T/C [33] of the same compound?
Answer: 68%

Question: What about the viability, T/C [34] of the same compound?
Answer: 52%

Question: What about the viability, T/C [35] of the same compound?
Answer: 47.8%

Question: And the viability, T/C [36]?
Answer: 40.8%

Question: Which results are given for `C[C@@H](NC(=O)c1ncnc(N)c1Cl)c1ncc(C(=O)Nc2cc(C(F)(F)F)c(Cl)cn2)s1` + C=CC(=O)N1CCN(c2nc(OCC3CCCN3C)nc3c(F)c(-c4nc(N)cc(C)c4C(F)(F)F)c(Cl)cc23)C(C)C1?
Answer: IC50 (second compound 0.00316 µM): > 10 µM; IC50 (second compound 0.01 µM): > 10 µM; IC50 (second compound 0.0316 µM): > 10 µM; IC50 (second compound 0.1 µM): > 10 µM; IC50 (second compound 0.316 µM): > 10 µM; IC50 (second compound 1 µM): > 10 µM; viability, T/C [1]: 108%; viability, T/C [2]: 109%; viability, T/C [3]: 111%; viability, T/C [4]: 105%; viability, T/C [5]: 99.7%; viability, T/C [6]: 75.2%; viability, T/C [7]: 121%; viability, T/C [8]: 109%; viability, T/C [9]: 114%; viability, T/C [10]: 103%; viability, T/C [11]: 96.2%; viability, T/C [12]: 75.9%; viability, T/C [13]: 107%; viability, T/C [14]: 99.8%; viability, T/C [15]: 104%; viability, T/C [16]: 101%; viability, T/C [17]: 94.4%; viability, T/C [18]: 75.9%; viability, T/C [19]: 113%; viability, T/C [20]: 105%; viability, T/C [21]: 99.8%; viability, T/C [22]: 101%; viability, T/C [23]: 98.4%; viability, T/C [24]: 73.1%; viability, T/C [25]: 110%; viability, T/C [26]: 105%; viability, T/C [27]: 108%; viability, T/C [28]: 105%; viability, T/C [29]: 103%; viability, T/C [30]: 76.6%; viability, T/C [31]: 108%; viability, T/C [32]: 94.4%; viability, T/C [33]: 103%; viability, T/C [34]: 95.5%; viability, T/C [35]: 92.6%; viability, T/C [36]: 72.9%

Question: With `O=C(c1ccc(F)c(F)c1Nc1ccc(I)cc1F)N1CC(O)([C@@H]2CCCCN2)C1` + C=CC(=O)N1CCN(c2nc(OCC3CCCN3C)nc3c(F)c(-c4nc(N)cc(C)c4C(F)(F)F)c(Cl)cc23)C(C)C1 as the compound, how does the IC50 (second compound 0.00316 µM) read?
Answer: 0.037 µM

Question: What about the IC50 (second compound 0.01 µM) of the same compound?
Answer: 0.0398 µM

Question: And the IC50 (second compound 0.0316 µM)?
Answer: 0.0396 µM

Question: And the IC50 (second compound 0.1 µM)?
Answer: 0.0463 µM

Question: And the IC50 (second compound 0.316 µM)?
Answer: 0.0466 µM

Question: What about the IC50 (second compound 1 µM) of the same compound?
Answer: 0.0564 µM

Question: And the viability, T/C (second compound 0.00316 µM, first compound 0.00316 µM)?
Answer: 81.5%

Question: What about the viability, T/C (second compound 0.00316 µM, first compound 0.01 µM) of the same compound?
Answer: 75.2%

Question: What about the viability, T/C [1] of the same compound?
Answer: 50.1%

Question: And the viability, T/C [2]?
Answer: 32.4%

Question: And the viability, T/C [3]?
Answer: 13.7%

Question: And the viability, T/C [4]?
Answer: 6.97%

Question: What about the viability, T/C (second compound 0.01 µM, first compound 0.00316 µM) of the same compound?
Answer: 85.8%

Question: And the viability, T/C (second compound 0.01 µM, first compound 0.01 µM)?
Answer: 74.7%

Question: What about the viability, T/C [7] of the same compound?
Answer: 54.9%

Question: What about the viability, T/C [8] of the same compound?
Answer: 30.2%

Question: And the viability, T/C [9]?
Answer: 15.9%

Question: And the viability, T/C [10]?
Answer: 2.53%

Question: What about the viability, T/C (second compound 0.0316 µM, first compound 0.00316 µM) of the same compound?
Answer: 86.5%

Question: What about the viability, T/C (second compound 0.0316 µM, first compound 0.01 µM) of the same compound?
Answer: 72%

Question: What about the viability, T/C [13] of the same compound?
Answer: 58%

Question: What about the viability, T/C [14] of the same compound?
Answer: 27.8%

Question: And the viability, T/C [15]?
Answer: 15.4%

Question: What about the viability, T/C [16] of the same compound?
Answer: 4.49%

Question: What about the viability, T/C (second compound 0.1 µM, first compound 0.00316 µM) of the same compound?
Answer: 87.7%

Question: And the viability, T/C (second compound 0.1 µM, first compound 0.01 µM)?
Answer: 73.1%

Question: What about the viability, T/C [19] of the same compound?
Answer: 60.8%

Question: What about the viability, T/C [20] of the same compound?
Answer: 32.6%

Question: What about the viability, T/C [21] of the same compound?
Answer: 16.4%

Question: And the viability, T/C [22]?
Answer: 5.49%

Question: What about the viability, T/C (second compound 0.316 µM, first compound 0.00316 µM) of the same compound?
Answer: 82.8%

Question: And the viability, T/C (second compound 0.316 µM, first compound 0.01 µM)?
Answer: 86.4%

Question: And the viability, T/C [25]?
Answer: 55.4%

Question: And the viability, T/C [26]?
Answer: 31.6%

Question: What about the viability, T/C [27] of the same compound?
Answer: 15.2%

Question: What about the viability, T/C [28] of the same compound?
Answer: 2.92%

Question: And the viability, T/C (second compound 1 µM, first compound 0.00316 µM)?
Answer: 78.8%

Question: And the viability, T/C (second compound 1 µM, first compound 0.01 µM)?
Answer: 81.7%

Question: And the viability, T/C [31]?
Answer: 60.2%

Question: And the viability, T/C [32]?
Answer: 37.8%

Question: And the viability, T/C [33]?
Answer: 15.1%

Question: And the viability, T/C [34]?
Answer: 3.14%
